Results taken from patent publication US20250041235A1, “FUNCTIONALIZED BIOLOGICAL MEMBRANES WITH MODIFYING PROTEIN MOLECULES, AND METHODS OF MAKING AND USES THEREOF” (McMaster University, priority 2021, published 2025).

Assays:
[1] = tested on: E. coli; experiment: Bacterial growth curves (OD600, 24 h) for E. coli; type: cell-based
Procedure: Bacterial growth curves for E. coli for different concentrations of (free) PmB (MIC, 0.5 MIC, 0.25 MIC, and 0 MIC) are shown in FIG. 12 a). […] Absorbance at 600 nm (OD 600) was measured during a period of 24 h. […] Bacteria treated with 0.25 MIC behaved similarly. A lag phase was observed before the first exponential cycle after the addition of an intermediate concentration of 0.5 MIC, where exponential growth was delayed by ˜9 h. […] Growth curves for E. coli treated with varying concentrations of Erythro-PmBs containing MIC, 0.5 MIC, 0.25 MIC, and 0 MIC of PmB are shown in FIG. 12 b).

[2] = tested on: red blood cells; experiment: Hemolytic assay (hemoglobin release by UV absorption); type: cell-based; details: PmB concentrations from 0 MIC to MIC
Procedure: 12% Triton X-100 was used as a total lysis control, and PBS was used as a negative control.
Hemolysis was determined from hemoglobin release measured by UV absorption. Data are shown for free PmB and Erythro-PmBs at different PmB concentrations from 0 MIC to MIC. Values in the order of 0.03% were determined to be well below the benchmark hemolysis rate of 2% identified by the American Society of Clinical Pathology and were considered to be non-hemolytic. […] Hemolytic activity of the Erythro-PmBs was less than that of free PmB, less than 0.01%, and independent of PmB concentration (within experimental error).

[3] = tested on: K. aerogenes; experiment: Bacterial growth curves (OD600, 24 h) for K. aerogenes; type: cell-based, Klebsiella aerogenes
Text: The lengths of the lag phase decreased monotonously with decreasing PmB concentration, similar to E. coli.
Bacterial growth curves for K. aerogenes for different concentrations of (free) PmB (MIC, 0.5 MIC, 0.25 MIC, and 0 MIC) are shown in FIG. 13 a). […] Diauxic growth was less evident in the presence of free PmB: 0.25 MIC to MIC.

polymyxin B [free PmB]
delay of exponential growth (lag phase) ([1]; 0.5 MIC): ~9 h
minimum inhibitory concentration (MIC) ([1]; OD600 over 24 h): 0.63 µg/mL
growth at MIC ([1]; PmB content at MIC (0.63 μg/mL)): No growth
hemolysis [2]: ~0.03%
lag phase ([3]; 0.25 MIC): 6 h
lag phase ([3]; 0.5 MIC): 9 h
minimum inhibitory concentration (MIC) ([3]; OD600 over 24 h): 1.5 µg/mL
